These results are taken from patent publication US11131677B2 (University of Washington, priority 2018, dated 2021).

The test system of one data set is T production. The conditions noted are these: normal men, single injection 300 μg/kg subcutaneous; cited from earlier work.
Data set [1] can be described thus: Oral testosterone pharmacokinetics and serum metabolite profile (LC-MS/MS) in men with acyline-induced experimental hypogonadism, with and without dutasteride. It counts as in vivo, human. The conditions noted are these: for CL/F: male, human, oral; for CL/F / AUC 0-24 h / Cmax / Tmax / t½: serum. As to the method:
T emulsion in sesame oil, mixed with milk, was administered orally to human subjects with acyline-induced experimental hypogonadism. The blood samples were collected and the serum was isolated and stored in −80° C. Steroids and their metabolites were extracted from serum using protein precipitation followed by solid-phase extraction and analyzed by UPLC coupled with SCIEX 6500 MS/MS.
Clinical study design is discussed below. All subjects provided written, informed consent prior to any study procedures. The study was approved by the University of Washington (UW) Investigational Review Board Committee.
While study was conducted with 200, 400 and 800 mg T dose, only T200 and T800 were quantified. […] Samples were mixed for 1 min by vortex mixing, and then centrifuged for 10 min at 3500×g at 4° C. […] Samples (2 mL) were loaded onto the cartridges and flow through was discarded.
Data were acquired by Analyst 1.6 software.

The next data set concerns the target T1, UGT2B17 (Homo sapiens, UniProt O75795).
T1 sequence (O75795 24-530): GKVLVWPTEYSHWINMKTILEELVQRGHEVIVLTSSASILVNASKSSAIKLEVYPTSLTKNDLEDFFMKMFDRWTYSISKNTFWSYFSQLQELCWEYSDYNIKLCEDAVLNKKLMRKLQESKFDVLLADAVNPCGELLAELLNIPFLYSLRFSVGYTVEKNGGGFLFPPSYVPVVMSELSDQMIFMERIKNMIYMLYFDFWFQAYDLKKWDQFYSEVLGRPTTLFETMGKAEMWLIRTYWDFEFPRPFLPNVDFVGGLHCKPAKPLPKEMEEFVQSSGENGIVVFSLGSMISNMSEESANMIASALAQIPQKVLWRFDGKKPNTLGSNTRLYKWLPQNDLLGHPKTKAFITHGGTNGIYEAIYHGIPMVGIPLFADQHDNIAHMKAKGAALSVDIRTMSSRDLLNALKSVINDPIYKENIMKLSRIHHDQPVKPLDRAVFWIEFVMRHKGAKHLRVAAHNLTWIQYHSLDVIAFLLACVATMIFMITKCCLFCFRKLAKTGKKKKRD
The conditions noted are these: scaled by absolute UGT2B abundance in the intestine.

The conditions of data set [2]: oral T, humans; cited from earlier work.

Usually CL/F stands for the apparent clearance, not corrected for the fraction that reaches the circulation. As a reminder, the Cmax is the maximum level reached in the sampled fluid or tissue. For orientation: Tmax means the time at which the peak concentration occurs. The term t½ denotes how long it takes for the measured level to halve.

Non-standard residues stand in square brackets, D forms with d. Residues, ends and D or L forms follow the SMILES beside them. dPhe(4-NH2) = Nc1ccc(C[C@@H](N)C(=O)O)cc1; dPhe(4-Cl) = N[C@H](Cc1ccc(Cl)cc1)C(=O)O; Phe(4-NH2) = Nc1ccc(C[C@H](N)C(=O)O)cc1; d2Nal = N[C@H](Cc1ccc2ccccc2c1)C(=O)O; Lys(iPr) = CC(C)NCCCC[C@H](N)C(=O)O; d3Pal = N[C@H](Cc1cccnc1)C(=O)O A value given as a limit tells only on which side of the number the result lay.

Consider `CC(=O)Nc1ccc(C[C@H](NC(=O)[C@H](CO)NC(=O)[C@@H](Cc2cccnc2)NC(=O)[C@@H](Cc2ccc(Cl)cc2)NC(=O)[C@@H](Cc2ccc3ccccc3c2)NC(C)=O)C(=O)N[C@H](Cc2ccc(NC(C)=O)cc2)C(=O)N[C@@H](CC(C)C)C(=O)N[C@@H](CCCCNC(C)C)C(=O)N2CCC[C@H]2C(=O)N[C@H](C)C(N)=O)cc1` [acyline] (Ac-[d2Nal][dPhe(4-Cl)][d3Pal]S[Phe(4-NH2)](Ac)[dPhe(4-NH2)](Ac)L[Lys(iPr)]P[dA]-NH2), for which, in the data set with T production, the “Duration of suppression of T production” value is no less than 15 days.
For the compound `C[C@]12CC[C@H]3[C@@H](CCC4=CC(=O)CC[C@@]43C)[C@@H]1CC[C@@H]2O` [T, Testosterone, reference compound], the “Change in serum T levels with dutasteride” value in data set [1] (200 mg T dose) was “no significant increase”. Besides, the “Increase in circulating T concentrations” value in data set [1] (4-fold increase in dose (200 to 800 mg)) was found to be 2 fold. In addition, the CL/F in data set [1] (200 mg, T200) is 106000 mL/min; in data set [1] (800 mg, T800) it was 259000 mL/min; in data set [1] (T200 + D) it was 120000 mL/min; in data set [1] (T800 + D), 147000 mL/min. The “AUC 0-24 h” value in data set [1] (T200) amounted to 0.0816 µM·h; in data set [1] (T200 + D), 0.0847 µM·h; in data set [1] (T800), 0.1689 µM·h; in data set [1] (T800 + D), 0.2938 µM·h. In addition, the Cmax in data set [1] (T200) amounted to 6 nM; in data set [1] (T200 + D) it was 8.8 nM; in data set [1] (T800), 16.8 nM; in data set [1] (T800 + D) it was 33 nM. The Tmax in data set [1] (T200) is on record as 4 h; in data set [1] (T800 + D), 2 h. Further, the t½ in data set [1] (T200 (200 mg oral T)) was 12.0 h; in data set [1] (T200 + D (200 mg oral T with dutasteride)), 7.0 h; in data set [1] (T800 (800 mg oral T)) it was 5.3 h; in data set [1] (T800 + D (800 mg oral T with dutasteride)) it was 5.7 h. For the same compound, the “Contribution of UGT2B17 to intestinal glucuronidation” value at UGT2B17 turned out to be 100%. The Oral bioavailability in data set [2] is listed as 2-8%.
